From ChEMBL document CHEMBL1201862, “PubChem BioAssay data set” (2004)
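Each compound was tested at five concentrations against cells in 96-well plates for 48 hours. GI50 marks 50% less growth.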 The source made the active and inactive calls. No stated cut-off is given here; in the data, active = GI50 up to about 1.1 µM and inactive = higher.

Key:
Test in all cases: DTP human tumour cell line panel, 48 h
UACC-62 = system: UACC-62
U-251 = system: U-251
M14 = system: M14
SF-295 = system: SF-295
SK-MEL-5 = system: SK-MEL-5
SNB-75 = system: SNB-75
HL-60 = system: HL-60
CAKI-1 = system: CAKI-1
UO-31 = system: UO-31
HOP-92 = system: HOP-92
SK-OV-3 = system: SK-OV-3
COLO 205 = system: COLO 205
UACC-257 = system: UACC-257
NCI-H226 = system: NCI-H226
HCT-15 = system: HCT-15
CCRF-CEM = system: CCRF-CEM
SNB-19 = system: SNB-19
RPMI-8226 = system: RPMI-8226
SK-MEL-28 = system: SK-MEL-28
LOX IMVI = system: LOX IMVI

Compound | GI50 (UACC-62) | GI50 (U-251) | GI50 (M14) | GI50 (SF-295) | GI50 (SK-MEL-5) | GI50 (SNB-75) | GI50 (HL-60) | GI50 (CAKI-1) | GI50 (UO-31) | GI50 (HOP-92) | GI50 (SK-OV-3) | GI50 (COLO 205) | GI50 (UACC-257) | GI50 (NCI-H226) | GI50 (HCT-15) | GI50 (CCRF-CEM) | GI50 (SNB-19) | GI50 (RPMI-8226) | GI50 (SK-MEL-28) | GI50 (LOX IMVI)
CC(=O)NNc1nc(C)c(C(/C=C/c2ccc(Cl)cc2)=N/NC(=S)NN)s1 | > 100 µM (inactive) | > 100 µM (inactive) | > 100 µM (inactive) | > 100 µM (inactive) | > 100 µM (inactive) | > 100 µM (inactive) | > 100 µM (inactive) | > 100 µM (inactive) | > 100 µM (inactive) | > 100 µM (inactive) | > 100 µM (inactive) | > 100 µM (inactive) | > 100 µM (inactive) | > 100 µM (inactive) | > 100 µM | > 100 µM (inactive) | > 100 µM (inactive) | > 100 µM (inactive) | > 100 µM (inactive) | > 100 µM (inactive)
c1ccc2cc3c(NC4=NCCO4)cccc3cc2c1 | > 100 µM (inactive) | > 100 µM (inactive) | 34.3 µM (inactive) | > 100 µM (inactive) | 35 µM (inactive) | 24.8 µM (inactive) | 25.9 µM (inactive) | 52.5 µM (inactive) | 53 µM (inactive) | 17.6 µM (inactive) | > 100 µM (inactive) | 35.9 µM (inactive) | 48.5 µM (inactive) | 52.2 µM (inactive) | > 100 µM | 27.7 µM (inactive) | 78.7 µM (inactive) | 39 µM (inactive) | > 100 µM (inactive) | 29.8 µM (inactive)
O=C(N/N=C\c1cccc2ccccc12)Nc1ccc([N+](=O)[O-])cc1 | 18.1 µM (inactive) | 17.1 µM (inactive) | 28.1 µM (inactive) | 13.7 µM (inactive) | 22.6 µM (inactive) | 38.9 µM (inactive) | > 40.6 µM (inactive) | 42.1 µM (inactive) | 12.8 µM (inactive) | 6.67 µM (inactive) | 24.6 µM (inactive) | 17.1 µM (inactive) | 25.1 µM (inactive) | 23.3 µM (inactive) | 13.9 µM | 24.3 µM (inactive) | 21.4 µM (inactive) | > 19.7 µM (inactive) | 27.7 µM (inactive) | 21.6 µM (inactive)
c1ccc(/C(=N/Nc2ccccn2)c2cccnn2)cc1 | 3.44 µM (inactive) | 4.21 µM (inactive) | 1.45 µM (inactive) | 3.11 µM (inactive) | 2.35 µM (inactive) | 2.78 µM (inactive) | 3.61 µM (inactive) | 1.75 µM (inactive) | 0.885 µM (active) | 5.48 µM (inactive) | 2.58 µM (inactive) | 0.741 µM (active) | 3.94 µM (inactive) | 1.07 µM (active) | 0.824 µM | 0.767 µM (active) | 10.3 µM (inactive) | 2.17 µM (inactive) | > 34.2 µM (inactive) | 2.07 µM (inactive)
CNC(=O)c1nnn(C2CCCCC2)c1S | > 100 µM (inactive) | > 100 µM (inactive) | > 100 µM (inactive) | > 100 µM (inactive) | > 100 µM (inactive) | > 100 µM (inactive) | > 100 µM (inactive) | > 100 µM (inactive) | > 100 µM (inactive) | > 100 µM (inactive) | > 100 µM (inactive) | > 100 µM (inactive) | > 100 µM (inactive) | > 100 µM (inactive) | > 100 µM | > 100 µM (inactive) | > 100 µM (inactive) | > 100 µM (inactive) | > 100 µM (inactive) | > 100 µM (inactive)
CC1=NN(C(=O)c2ccccc2O)C(=O)/C1=C/c1cccc([N+](=O)[O-])c1 | 0.408 µM (active) | 0.512 µM (active) | 2.37 µM (inactive) | 0.507 µM (active) | 2.57 µM (inactive) | 0.449 µM (active) | 1.22 µM (inactive) | 2.2 µM (inactive) | 0.596 µM (active) | 1.27 µM (inactive) | 15.3 µM (inactive) | 29 µM (inactive) | 5.73 µM (inactive) | 0.274 µM (active) | 4.05 µM | 2.77 µM (inactive) | 0.385 µM (active) | 13.3 µM (inactive) | > 49.7 µM (inactive) | 0.695 µM (active)
CC(C)=Cc1cc(C(=O)NCCNC(=O)c2cc(C=C(C)C)nc(NC#N)n2)nc(NC#N)n1 | > 100 µM (inactive) | > 100 µM (inactive) | > 100 µM (inactive) | > 100 µM (inactive) | > 100 µM (inactive) | > 100 µM (inactive) | > 100 µM (inactive) | > 100 µM (inactive) | > 100 µM (inactive) | > 100 µM (inactive) | > 100 µM (inactive) | > 100 µM (inactive) | > 100 µM (inactive) | > 100 µM (inactive) | > 100 µM | > 100 µM (inactive) | > 100 µM (inactive) | > 100 µM (inactive) | > 100 µM (inactive) | > 100 µM (inactive)
Cc1ccc2cccc3c2c1CC1(C3=O)S(=O)(=O)OCCOS1(=O)=O | > 100 µM (inactive) | > 100 µM (inactive) | > 100 µM (inactive) | > 100 µM (inactive) | > 100 µM (inactive) | > 100 µM (inactive) | > 100 µM (inactive) | > 100 µM (inactive) | > 100 µM (inactive) | > 100 µM (inactive) | > 100 µM (inactive) | > 100 µM (inactive) | > 100 µM (inactive) | > 100 µM (inactive) | > 100 µM | > 100 µM (inactive) | > 100 µM (inactive) | > 100 µM (inactive) | > 100 µM (inactive) | > 100 µM (inactive)
Cc1[nH]nc2c1C(=O)C=C(N(CCO)c1ccccc1)C2=O | > 100 µM (inactive) | > 100 µM (inactive) | > 100 µM (inactive) | > 100 µM (inactive) | > 100 µM (inactive) | 88.9 µM (inactive) | > 100 µM (inactive) | > 100 µM (inactive) | > 100 µM (inactive) | > 100 µM (inactive) | > 100 µM (inactive) | > 100 µM (inactive) | > 100 µM (inactive) | > 100 µM (inactive) | > 100 µM | > 100 µM (inactive) | > 100 µM (inactive) | > 100 µM (inactive) | > 100 µM (inactive) | 4.05 µM (inactive)
O=c1oc2ccc3ccccc3c2cc1-c1nc2ccccc2o1 | 36.1 µM (inactive) | 22.2 µM (inactive) | 33.2 µM (inactive) | 26.2 µM (inactive) | 25.9 µM (inactive) | 17.5 µM (inactive) | 40.6 µM (inactive) | 17.1 µM (inactive) | 30.9 µM (inactive) | 16.4 µM (inactive) | 25.6 µM (inactive) | 53.5 µM (inactive) | > 49.9 µM (inactive) | 22.5 µM (inactive) | 36.6 µM | 37.7 µM (inactive) | 19.7 µM (inactive) | > 38.8 µM (inactive) | 22.6 µM (inactive) | 16.6 µM (inactive)
CCN(CC)c1cc2c3c(c1)CCCN3CCC2 | > 10 µM (inactive) | > 10 µM (inactive) | > 10 µM (inactive) | > 10 µM (inactive) | > 10 µM (inactive) | > 10 µM (inactive) | > 10 µM (inactive) | > 10 µM (inactive) | > 10 µM (inactive) | > 10 µM (inactive) | > 10 µM (inactive) | > 10 µM (inactive) | > 10 µM (inactive) | > 10 µM (inactive) | > 10 µM | > 10 µM (inactive) | > 10 µM (inactive) | > 10 µM (inactive) | > 10 µM (inactive) | > 10 µM (inactive)
NC1CC(=O)c2csc(Cl)c21 (stereo not given) | 10 µM (inactive) | 8.51 µM (inactive) | 8.99 µM (inactive) | 17.1 µM (inactive) | 18.5 µM (inactive) | 17.3 µM (inactive) | 2.72 µM (inactive) | 1.86 µM (inactive) | 5.75 µM (inactive) | 4.46 µM (inactive) | 17.3 µM (inactive) | 5.32 µM (inactive) | 14.9 µM (inactive) | 37 µM (inactive) | 5.41 µM | 0.778 µM (active) | 17.5 µM (inactive) | 0.234 µM (active) | 17.1 µM (inactive) | 4 µM (inactive)
CC(=O)OC1CCCn2c1nc1c2C(=O)C(C)=C(N2CC2)C1=O (stereo not given) | 0.301 µM (active) | 0.201 µM (active) | 0.163 µM (active) | 0.16 µM (active) | 0.185 µM (active) | 0.301 µM (active) | 2.41 µM (inactive) | 0.296 µM (active) | 0.605 µM (active) | 27.8 µM (inactive) | 0.364 µM (active) | 0.535 µM (active) | 0.242 µM (active) | 0.318 µM (active) | 0.207 µM | 3.51 µM (inactive) | 0.338 µM (active) | 1.07 µM (active) | 0.522 µM (active) | 0.303 µM (active)
C=C(C)[C@@H]1CC=C(CO)CC1 [PERILLYL ALCOHOL] | 236 µM (inactive) | 125 µM (inactive) | 710 µM (inactive) | 266 µM (inactive) | 110 µM (inactive) | 56 µM (inactive) | 50.1 µM (inactive) | > 10 µM (inactive) | 410 µM (inactive) | 117 µM (inactive) | 748 µM (inactive) | 199 µM (inactive) | 533 µM (inactive) | 251 µM (inactive) | 167 µM | 101 µM (inactive) | 348 µM (inactive) | > 10 µM (inactive) | 201 µM (inactive) | 195 µM (inactive)
